Here are results for 6 molecules from patent US8853190B2, “Steroids having increased water solubility and resistance against metabolism, and methods for their production” (Umecrine AB, priority 2006, dated 2014).

The data set in a line: HPLC retention times (reverse phase) as a measure of hydrophilicity. The conditions noted are these: reverse phase C18 3.5 μm 4.6×75 mm; 45° C.; flow 1.0 mL/min; isocratic 40:60 v/v H2O:MeOH; shorter retention times correspond to higher hydrophilicity. In kind it is physicochemical. As to the method: HPLC Retention Times [min] for Compounds According to the Invention
HPLC Conditions: Waters's SYMMETRY® HPLC column system (C18 3.5 μm 4.6×75 mm); T: 45° C.; flow 1.0 mL/min; isocratic eluent conditions 40:60 v/v/H2O:MeOH. Injection volume: 100 μL.
Solvents used for eluent are of HPLC grade, water filtered through a Millipore apparatus; all solvents were filtered through a 0.45 μm Millipore filter and degassed by N2 stream prior use.
Since the analyses are carried in reverse phase, shorter retention times correspond to higher hydrophilicity.
For the molecule `CC(=O)[C@H]1CC[C@H]2[C@@H]3CC[C@H]4C[C@@H](O)CC[C@]4(C)[C@H]3CC[C@]12C` [3β-5α-pregnan-20-one, reference compound], the “retention time” value was 30.0 min.

Take `CC(=O)[C@H]1CC[C@H]2[C@@H]3CC[C@@H]4C[C@@H](O)CC[C@]4(C)[C@H]3CC[C@]12C` [3β-5β-pregnan-20-one, reference compound]: the “retention time” value is listed as 24.4 min.

With `C#C[C@@]1(O)CC[C@@]2(C)[C@@H](CC[C@@H]3[C@@H]2CC[C@]2(C)C(=O)CC[C@@H]32)C1` [UC 2021, 3β-ethynyl, 3α-hydroxyl, androstan-17-one], the “retention time” value worked out at 7.8 min.

In the case of `C#C[C@]1(O)C=C2CCC3C(CC[C@@]4(C)C3CC[C@@H]4C(C)=O)[C@@]2(C)CC1` (stereo partly drawn) [UC 2024, 3β-ethynyl, 3α-hydroxyl, Δ4-pregnen-20-one], the “retention time” value is listed as 14.0 min.

Take `C#C[C@@]1(O)CC[C@@]2(C)C(CC[C@@H]3[C@@H]2CC[C@]2(C)/C(=N\O)CC[C@@H]32)C1` (stereo partly drawn) [UC 2025, 3β-ethynyl, 3α-hydroxyl, androstan-17-one oxime]: the “retention time” value amounted to 13.9 min.

For `C#C[C@@]1(O)CC[C@@]2(C)[C@@H](CC[C@@H]3[C@@H]2CC[C@]2(C)[C@@H](/C(C)=N/O)CC[C@@H]32)C1` [UC 2026, 3β-ethynyl, 3α-hydroxyl, 5α-pregnan-20-one oxime], the “retention time” value is recorded as 16.9 min.
